Data: patent publication US20250268931A1, “TRANSCRIPTIONAL INHIBITOR FOR IMMUNE-RELATED GENE” (The University of Tokyo, priority 2022, published 2025)

Test system: IFN-β
Test: IFN-β concentration in culture supernatant of LPS-stimulated Raw264.7 cells (ELISA)
Format: cell-based
Settings: PIPA 1, 3 or 10 μM 24 h, then LPS 20 ng/mL 16 h
Procedure: Raw264.7 cells, a macrophage cell line, were seeded on a 96-well plate at a cell density of 2×10^4 cells/well, and were then culture for 8 hours for adhesion. Thereafter, IRF-PIPA was added to the cultured cells to final concentrations of 1, 3, or 10 μM. After completion of the culture for 24 hours, LPS was added to the cultured cells to a final concentration of 20 ng/mL, and the obtained mixture was then cultured for 16 hours, followed by the recovery of the supernatant. The supernatant was 2-fold diluted with 1% BSA-PBS, and the IFN-β concentration was then measured by ELISA.
Raw264.7 cells, a cell line, were purchased from RIKEN Cell Bank, and were then cultured using D-MEM (Nacalai Tesque) containing 10% FBS (SIGMA-ALDRICH) and Penicillin-Streptomycin mixed solution (Nacalai Tesque).
2×10^4 Raw264.7 cells were seeded on a plate, and were then treated with IRF-PIPA 1, IRF-PIPA 2, IRF-PIPA 3 or IRF-PIPA 4 for 24 hours. Thereafter, the cells were stimulated with LPS (Lipopolysaccharide, SIGMA-ALDRICH) for 16 hours, and the culture supernatant was then recovered. The concentration of cytokine in the culture supernatant was measured using ELISA kit (R&D SYSTEMS) according to the standard protocols. The culture supernatant was diluted with 1% BSA-PBS, as necessary, and was then analyzed. 2.5×10^5 Mouse peritoneal macrophages were seeded on a plate, and were then treated with IRF-PIPA 3 for 16 or 24 hours. Thereafter, the cells were stimulated with Poly(I:C) (InvivoGen) for 16 hours or with mRNA vaccine (Moderna) for 20 to 24 hours, and the culture supernatant was then recovered. The concentration of cytokine in the culture supernatant was measured using ELISA kit (R&D SYSTEMS) according to the same standard protocols. On the other hand, the concentration of cytokine in mouse plasma was measured by administering 400 μg/mouse IRF-PIPA 3 into the abdominal cavity of wild-type mice, then administering 250 μg of Poly(I:C) into the same abdominal cavity 24 hours after the IRF-PIPA 3 administration, then collecting blood further 2 hours after the Poly(I:C) administration, and then measuring the cytokine concentration in the plasma using ELISA kit (R&D SYSTEMS) according to standard protocols.

## CC(=O)Nc1cn(C)c(C(=O)Nc2cc(C(=O)NCCC(=O)Nc3cc(C(=O)Nc4cn(C)c(C(=O)NCCCC(=O)Nc5cc(C(=O)Nc6cc(C(=O)NCCC(=O)Nc7cc(C(=O)Nc8cc(C(=O)NCCCN(C)C)n(C)c8)n(C)c7)n(C)c6)n(C)c5)n4)n(C)c3)n(C)c2)n1 [IRF-PIPA 1]
  concentration dependence of suppression of IFN-β production: concentration dependence was not observed

## CC(=O)Nc1cn(C)c(C(=O)Nc2cc(C(=O)NCCC(=O)Nc3cc(C(=O)Nc4cc(C(=O)NCCCC(=O)Nc5cn(C)c(C(=O)Nc6cc(C(=O)NCCC(=O)Nc7cc(C(=O)Nc8cc(C(=O)NCCCN(C)C)n(C)c8)n(C)c7)n(C)c6)n5)n(C)c4)n(C)c3)n(C)c2)n1 [IRF-PIPA 2]
  concentration dependence of suppression of IFN-β production: concentration dependence was not observed
